# According to paper PMC4379058, “The Biochemical Properties of the Arabidopsis Ecto-Nucleoside Triphosphate Diphosphohydrolase AtAPY1 Contradict a Direct Role in Purinergic Signaling” (PLoS ONE, 2015):
# Assays:
# Test in all cases: discontinuous molybdate phosphate release assay
# [1] = biological target: T1, AtAPY1-GFP (Arabidopsis thaliana, UniProt Q9SQG2); type: biochemical; conditions: 3 mM UDP substrate, 2 mM MgCl2, pH 6.5, 30°C; immobilised enzyme
# T1 construct: gene APY1; full-length, C-terminal GFP fusion (GFP from residue 472; 80 kDa), 35S transgenic Arabidopsis seedlings, immobilised on anti-GFP plate
# T1 sequence (Q9SQG2 1-471): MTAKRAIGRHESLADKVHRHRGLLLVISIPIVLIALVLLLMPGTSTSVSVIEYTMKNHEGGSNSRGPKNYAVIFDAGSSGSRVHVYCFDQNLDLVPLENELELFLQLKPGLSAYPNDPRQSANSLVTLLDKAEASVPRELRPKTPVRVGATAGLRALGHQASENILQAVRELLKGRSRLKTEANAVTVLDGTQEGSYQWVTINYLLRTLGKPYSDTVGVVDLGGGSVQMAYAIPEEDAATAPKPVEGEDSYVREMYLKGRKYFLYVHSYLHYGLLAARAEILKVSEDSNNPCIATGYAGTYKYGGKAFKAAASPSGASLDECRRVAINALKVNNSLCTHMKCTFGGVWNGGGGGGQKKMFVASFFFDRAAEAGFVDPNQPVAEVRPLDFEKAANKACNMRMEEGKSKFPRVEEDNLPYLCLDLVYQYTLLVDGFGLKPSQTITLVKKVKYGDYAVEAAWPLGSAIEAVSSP
# [2] = biological target: T2, AtAPY1 (Arabidopsis thaliana, UniProt Q9SQG2); parameters: gene APY1; conditions: 3 mM UDP substrate, 1 mM MgCl2, pH 6.5, 30°C
# T2 sequence (Q9SQG2 1-471): T1 sequence (Q9SQG2 1-471)
# [3] = biological target: T3, AtAPY1-δTM (Arabidopsis thaliana, UniProt Q9SQG2); type: biochemical
# T3 construct: gene APY1; 45 kDa theoretical
# T3 sequence (Q9SQG2 67-470): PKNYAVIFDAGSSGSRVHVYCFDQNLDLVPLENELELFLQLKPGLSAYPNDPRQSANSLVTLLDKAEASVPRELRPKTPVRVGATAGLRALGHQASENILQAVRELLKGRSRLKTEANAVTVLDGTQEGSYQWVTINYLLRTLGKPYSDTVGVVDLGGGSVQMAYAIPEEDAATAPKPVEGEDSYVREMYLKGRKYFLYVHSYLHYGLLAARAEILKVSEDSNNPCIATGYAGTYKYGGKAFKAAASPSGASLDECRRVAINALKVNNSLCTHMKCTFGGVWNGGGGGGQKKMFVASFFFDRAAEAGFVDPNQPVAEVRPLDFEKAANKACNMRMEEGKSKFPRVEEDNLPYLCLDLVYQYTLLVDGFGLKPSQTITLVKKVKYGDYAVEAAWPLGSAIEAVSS
# [4] = biological target: T2, AtAPY1; type: biochemical; parameters: gene APY1; full-length with TM, C-terminal linker and His6 tag, HEK293 cells; Ni-NTA elution fraction, not enriched; 52 kDa theoretical
Structure (SMILES),% inhibition [1],% inhibition at 1 mM [2],discontinuous molybdate phosphate release assay [3],discontinuous molybdate phosphate release assay [4]
[O]=[V]([OH])([OH])[OH] [vanadate],The same inhibition pattern was found for AtAPY1-GFP,54%,–,–
Nc1nc2c(ncn2[C@@H]2O[C@H](COP(=O)(O)OP(=O)(O)O)[C@@H](O)[C@H]2O)c(=O)[nH]1 [GDP],–,–,"AtAPY1 with or without TM is limited to the nucleotides GDP, IDP and UDP","only GDP, IDP and UDP were hydrolyzed by AtAPY1"
O=c1ccn([C@@H]2O[C@H](COP(=O)(O)OP(=O)(O)O)[C@@H](O)[C@H]2O)c(=O)[nH]1 [UDP],–,–,"AtAPY1 with or without TM is limited to the nucleotides GDP, IDP and UDP","only GDP, IDP and UDP were hydrolyzed by AtAPY1"
